# From ChEMBL document CHEMBL4190182 (Medchemcomm, 2016)
# pKi: −log10 of the molar value.
# Assays:
# [1] = target: T1, Kappa-type opioid receptor (Cavia porcellus, UniProt P41144); experiment: Displacement of [3H]U-69,593 from kappa opioid receptor in guinea pig brain membranes by scintillation counting analysis; assay type: cell membranes, Membrane
# [2] = target: T1, Kappa-type opioid receptor; experiment: Displacement of [3H]U-69,593 from kappa opioid receptor in guinea pig brain membranes after 120 mins by scintillation counting analysis; assay type: cell membranes, Membrane
# [3] = target: Mu-type opioid receptor (Cavia porcellus, UniProt P97266); experiment: Displacement of [3H]DAMGO from mu opioid receptor in guinea pig brain membranes after 120 mins by scintillation counting analysis; assay type: cell membranes, Membrane
# [4] = target: T2, Sigma intracellular receptor 2 (Rattus norvegicus, UniProt Q5U3Y7); experiment: Displacement of [3H]DTG from sigma2 receptor in Sprague-Dawley rat liver membranes after 120 mins by scintillation counting analysis; assay type: cell membranes, Membrane
# T2 sequence (Q5U3Y7 whole entry): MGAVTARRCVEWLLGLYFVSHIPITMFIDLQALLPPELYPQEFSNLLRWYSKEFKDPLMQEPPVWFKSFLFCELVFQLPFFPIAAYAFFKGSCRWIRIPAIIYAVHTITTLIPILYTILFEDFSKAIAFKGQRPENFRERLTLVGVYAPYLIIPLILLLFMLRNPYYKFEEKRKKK
# [5] = target: Sigma non-opioid intracellular receptor 1 (Cavia porcellus, UniProt Q60492); experiment: Displacement of [3H]-(+)-Pentazocine from sigma1 receptor in guinea pig brain cortex membranes after 120 mins by scintillation counting analysis; assay type: cell membranes
# [6] = target: Delta-type opioid receptor (Rattus norvegicus, UniProt P33533); experiment: Displacement of [3H]DPDPE from delta opioid receptor in Sprague-Dawley rat brain membranes after 120 mins by scintillation counting analysis; assay type: cell membranes, Membrane
# [7] = target: Kappa-type opioid receptor (Homo sapiens) (UniProt P41145); experiment: Agonist activity at kappa opioid receptor in HEK293 cells at 1 uM after 30 mins by [35S]-GTPgammaS binding assay relative to control; assay type: functional, cell-based
# Sequence of Kappa-type opioid receptor (Homo sapiens) (P41145 whole entry): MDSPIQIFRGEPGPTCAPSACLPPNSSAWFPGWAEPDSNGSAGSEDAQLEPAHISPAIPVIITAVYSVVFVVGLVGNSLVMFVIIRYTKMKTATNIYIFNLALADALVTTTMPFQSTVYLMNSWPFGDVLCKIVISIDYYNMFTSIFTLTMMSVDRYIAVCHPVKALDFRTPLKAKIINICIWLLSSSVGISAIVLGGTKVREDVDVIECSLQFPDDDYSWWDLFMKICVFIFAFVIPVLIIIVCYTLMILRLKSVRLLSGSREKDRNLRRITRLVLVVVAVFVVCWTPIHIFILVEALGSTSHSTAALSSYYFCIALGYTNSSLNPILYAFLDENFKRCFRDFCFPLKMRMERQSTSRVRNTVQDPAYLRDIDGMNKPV
# Sequence of Sigma non-opioid intracellular receptor 1 (Q60492 whole entry): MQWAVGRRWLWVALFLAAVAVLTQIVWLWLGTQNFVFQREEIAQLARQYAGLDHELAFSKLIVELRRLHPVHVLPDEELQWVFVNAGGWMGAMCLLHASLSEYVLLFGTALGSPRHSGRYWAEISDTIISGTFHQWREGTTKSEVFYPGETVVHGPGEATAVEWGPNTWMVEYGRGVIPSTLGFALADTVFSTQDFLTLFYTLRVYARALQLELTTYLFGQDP
# T1 sequence (P41144 whole entry): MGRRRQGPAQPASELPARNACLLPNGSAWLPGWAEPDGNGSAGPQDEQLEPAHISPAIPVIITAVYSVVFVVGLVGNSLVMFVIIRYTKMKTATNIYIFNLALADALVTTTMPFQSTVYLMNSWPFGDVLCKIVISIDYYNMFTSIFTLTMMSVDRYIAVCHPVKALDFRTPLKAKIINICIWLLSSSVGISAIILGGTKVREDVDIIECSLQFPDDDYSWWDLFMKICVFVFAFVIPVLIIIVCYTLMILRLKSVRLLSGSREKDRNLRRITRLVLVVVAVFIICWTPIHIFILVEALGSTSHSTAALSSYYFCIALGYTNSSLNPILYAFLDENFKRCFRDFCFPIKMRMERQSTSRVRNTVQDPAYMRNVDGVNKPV
# Sequence of Mu-type opioid receptor (P97266 whole entry): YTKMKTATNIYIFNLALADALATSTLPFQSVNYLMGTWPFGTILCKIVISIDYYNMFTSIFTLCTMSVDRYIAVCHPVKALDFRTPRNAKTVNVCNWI
# Sequence of Delta-type opioid receptor (P33533 whole entry): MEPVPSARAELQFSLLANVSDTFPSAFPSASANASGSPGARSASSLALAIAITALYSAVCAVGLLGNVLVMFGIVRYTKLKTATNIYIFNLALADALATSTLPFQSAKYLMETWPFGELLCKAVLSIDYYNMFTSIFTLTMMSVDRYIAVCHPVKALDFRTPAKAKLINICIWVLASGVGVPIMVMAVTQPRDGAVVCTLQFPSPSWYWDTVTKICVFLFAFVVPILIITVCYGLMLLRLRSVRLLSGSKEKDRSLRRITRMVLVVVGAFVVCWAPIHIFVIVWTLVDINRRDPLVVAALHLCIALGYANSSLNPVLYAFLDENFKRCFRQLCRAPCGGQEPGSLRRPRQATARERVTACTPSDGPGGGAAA
SMILES,pKi [1],pKi [2],pKi [3],pKi [4],pKi [5],pKi [6],Activity [7] [%]
COC(=O)N1CCC(NC(=O)Cc2ccc(Cl)c(Cl)c2)C([C@@H](C)N2CCCC2)C1 (stereo partly drawn),9.51,–,–,–,–,–,–
CCN1CC2OCCN(C(=O)Cc3ccc(Cl)c(Cl)c3)C2C(N2CCCC2)C1 (racemic),–,5.89,< 6.00,6.99,6.41,< 6.00,–
O=C(Cc1ccc(Cl)c(Cl)c1)N1CC2OCCN(C(=O)Cc3ccc(Cl)c(Cl)c3)C2C(N2CCCC2)C1 (racemic),–,–,–,< 6.00,–,–,–
O=C(Cc1ccc(Cl)c(Cl)c1)N1CCOC2CN(Cc3ccccc3)CC(N3CCCC3)C21 (racemic),–,6.04,6.58,< 6.00,6.01,6.59,–
O=C(Cc1ccc(Cl)c(Cl)c1)N1CCOC2CN(Cc3cccnc3)CC(N3CCCC3)C21 (racemic),–,< 6.00,6.20,< 6.00,6.54,6.18,–
O=C(Cc1ccc(Cl)c(Cl)c1)N1CCOC2CNCC(N3CCCC3)C21 (racemic),–,6.88,< 6.00,< 6.00,< 6.00,< 6.00,27
CN1CC2OCCN(C(=O)Cc3ccc(Cl)c(Cl)c3)C2C(N2CCCC2)C1 (racemic),–,6.54,< 6.00,< 6.00,< 6.00,< 6.00,–
O=C1COC2CN(C(=O)Cc3ccc(Cl)c(Cl)c3)CC(N3CCCC3)C2N1 (racemic),–,< 6.00,< 6.00,< 6.00,< 6.00,< 6.00,–
CCCCN1CC2OCCN(C(=O)Cc3ccc(Cl)c(Cl)c3)C2C(N2CCCC2)C1 (racemic),–,< 6.00,6.30,6.50,6.72,< 6.00,–
O=C(Cc1ccc(Cl)c(Cl)c1)N1CCOC2CN(C3CCCC3)CC(N3CCCC3)C21 (racemic),–,< 6.00,6.35,7.35,6.74,6.14,–
